From article PMC12198282, “Application of a high-density microelectrode array assay using a 3D human iPSC-derived brain microphysiological system model for in vitro neurotoxicity screening of environmental compounds” (Archives of Toxicology, 2025)
Entries after “also recorded” stand apart in the source; their conditions may differ. Read-outs that look alike come from different tables or passages of the source.

Columns and labels:
[1] = system: human iPSC-derived 3D BrainSpheres; test: BrainSphere MEA assay (HD-MEA, 13-day exposure, concentration-response); assay type: cell-based; settings: for EC (benchmark response 1.349 SD) / AC50: Homo sapiens; for EC (benchmark response 1.349 SD): 312 h; as to hitc Mean.Spheroid.Burst.Duration: key: 1 (active); 0 (inactive); as to hitc Mean.Spheroid.Burst.ISI: key: 1 (active); 0 (inactive); as to hitc Mean.Spheroid.Burst.Peak.Firing.Rate: key: 1 (active); 0 (inactive); as to hitc Mean.Spheroid.Firing.Rate: key: 1 (active); 0 (inactive); as to hitc Mean.Spheroid.IBI: key: 1 (active); 0 (inactive); as to hitc Mean.Spheroid.Nonburst.ISI: key: 1 (active); 0 (inactive); as to hitc Mean.Spheroid.Spikes.per.Burst.per.Electrode: key: 1 (active); 0 (inactive); as to hitc Mean.Spheroid.Spikes.per.Burst: key: 1 (active); 0 (inactive); as to hitc Spheroid.Burst.Frequency: key: 1 (active); 0 (inactive); as to hitc Spheroid.Spike.Amplitude.90th.Percentile: key: 1 (active); 0 (inactive)
Description: A volume of 1 ml of Tergazyme (1% solution in deionized water) was added to each well of the MaxTwo 6-Well Plate (MaxWell Biosystems) and incubated overnight under constant gyratory shaking (88 RPM) at 37 °C and 5% CO2. The next day, Tergazyme solution was removed, and plates were washed with distilled water and ethanol. After remaining ethanol was evaporated, wells were washed with PBS. Then, 200 µl of Poly-D-Lysine (Gibco, A38904 - 01) was added on top of the electrodes and incubated at 37 °C and 5% CO2 for 3 h (humidified). Poly-D-Lysine was then removed, and wells were coated with 100 µl of 0.1 mg/ml laminin coating solution (Sigma-Aldrich, L2020 - 1 mg) and incubated for 2 h at 37 ℃ and 5% CO2 (humidified). The laminin was removed after incubation. Using a 1 ml micropipette, 1 ml of medium containing BrainSpheres (7 weeks differentiated), approximately 25 BrainSpheres per ml, was plated on top of the HD-MEA chip (Fig. 1A). Afterwards, the plate was placed in an incubator at 37 °C and 5% CO2 and moved in circles to accumulate the BrainSpheres on top of the electrode area (Fig. 1A). The plate was kept in an incubator (humidified) for 2 days to allow attachment of the BrainSpheres with no gyratory shaking of the plates.
The MaxTwo high-density microelectrode array system (MaxWell Biosystems AG, Zurich, Switzerland) was used to measure neural activity with MaxTwo 6-well plates, where every well includes an integrated chip with 26,400 platinum electrodes arranged in an area of 3.85 × 2.10 mm^2 ([…]) (Muller et al. [2015]). The data were recorded and analyzed with the MaxLab Live Software (version 22.2.22). First, the MaxLab live ActivityScan Assay was used to identify the activity and positioning of the BrainSpheres on the array by scanning all the 26,400 electrodes in 29 configurations in a well (Assay Parameters: Configuration = Full; Recording time per configuration = 60 s (s)). The settings gain = 512, high-pass-filter (HPF): ~ 1 Hz and spike threshold = 5 X root-mean square (RMS) noise were used for all HD-MEA recordings. Circular regions of interest (ROI) were manually selected in the Activity Map where neuronal activity was apparent by an increased activity (Fig. 2). Over the course of the 13-day experiment, the same selected regions and electrodes were measured using the MaxLab Live Network Assay (600 s recording time).
A custom analysis framework was used to extract the MaxLab Live neuronal metrics for the individual BrainSpheres. For this, electrodes comprising a single ROI (i.e., individual BrainSphere; Fig. 2D) were grouped using distance-based clustering (fcluster method of Scipy library, Python 3.7) and neural metrics were calculated for the clustered electrodes for every ROI separately. Figure 2E presents a raster plot illustrating the activity associated with individual Regions of Interest (ROIs). […] Ten MaxLab Live neural metrics (endpoints) were evaluated from the MaxLab live ActivityScan and Network Assay in this study. See Table 3 for the endpoint definitions, tuned parameters, and activity type (general versus network connectivity).
The BrainSphere MEA assay measured changes in neural activity during a 13-day chemical exposure. The first recording day of the concentration–response screening protocol (day of exposure (DOE) 0) occurred after 7 weeks of BrainSphere differentiation, 48 h after plating on HD-MEA plates (Fig. 1B). The study included at least three biological replicates (one well per plate) from separate experiments (e.g., three different plates on three different days) and each well included multiple BrainSpheres which were considered technical replicates.

2D rat cortical cultures [2] = settings: rNFA mc5 hit call; cytotoxicity LDH; cited from earlier work
2D rat cortical cultures [3] = settings: cited from earlier work; for hitc CCTE_Shafer_MEA_dev_active_electrodes_number / hitc CCTE_Shafer_MEA_dev_burst_duration_mean / hitc CCTE_Shafer_MEA_dev_burst_rate / hitc CCTE_Shafer_MEA_dev_bursting_electrodes_number / hitc CCTE_Shafer_MEA_dev_correlation_coefficient_mean / hitc CCTE_Shafer_MEA_dev_firing_rate_mean / hitc CCTE_Shafer_MEA_dev_inter_network_spike_interval_mean / hitc CCTE_Shafer_MEA_dev_interburst_interval_mean / hitc CCTE_Shafer_MEA_dev_mutual_information_norm / hitc CCTE_Shafer_MEA_dev_network_spike_duration_std / hitc CCTE_Shafer_MEA_dev_network_spike_number / hitc CCTE_Shafer_MEA_dev_network_spike_peak / hitc CCTE_Shafer_MEA_dev_per_burst_interspike_interval / hitc CCTE_Shafer_MEA_dev_per_burst_spike_percent / hitc CCTE_Shafer_MEA_dev_per_network_spike_spike_number_mean / hitc CCTE_Shafer_MEA_dev_per_network_spike_spike_percent / hitc CCTE_Shafer_MEA_dev_spike_duration_mean: rNFA mc5 hit call; for hitc CCTE_Shafer_MEA_dev_active_electrodes_number: aenm active_electrodes_number; for hitc CCTE_Shafer_MEA_dev_burst_duration_mean: aenm burst_duration_mean; for hitc CCTE_Shafer_MEA_dev_burst_rate: aenm burst_rate; for hitc CCTE_Shafer_MEA_dev_bursting_electrodes_number: aenm bursting_electrodes_number; for hitc CCTE_Shafer_MEA_dev_correlation_coefficient_mean: aenm correlation_coefficient_mean; for hitc CCTE_Shafer_MEA_dev_firing_rate_mean: aenm firing_rate_mean; for hitc CCTE_Shafer_MEA_dev_inter_network_spike_interval_mean: aenm inter_network_spike_interval_mean; for hitc CCTE_Shafer_MEA_dev_interburst_interval_mean: aenm interburst_interval_mean; for hitc CCTE_Shafer_MEA_dev_mutual_information_norm: aenm mutual_information_norm; for hitc CCTE_Shafer_MEA_dev_network_spike_duration_std: aenm network_spike_duration_std; for hitc CCTE_Shafer_MEA_dev_network_spike_number: aenm network_spike_number; for hitc CCTE_Shafer_MEA_dev_network_spike_peak: aenm network_spike_peak; for hitc CCTE_Shafer_MEA_dev_per_burst_interspike_interval: aenm per_burst_interspike_interval; for hitc CCTE_Shafer_MEA_dev_per_burst_spike_percent: aenm per_burst_spike_percent; for hitc CCTE_Shafer_MEA_dev_per_network_spike_spike_number_mean: aenm per_network_spike_spike_number_mean; for hitc CCTE_Shafer_MEA_dev_per_network_spike_spike_percent: aenm per_network_spike_spike_percent; for hitc CCTE_Shafer_MEA_dev_spike_duration_mean: aenm spike_duration_mean; for Bioactivity in the rNFA (in words): ref Brown et al. [2016], Carstens et al. [2022], Frank et al. [2017b], Shafer et al. [2019], ToxCast invitrodb (v4.2)
[4] = read-out: BMD Mean.Spheroid.Burst.ISI
[5] = read-out: BMD Mean.Spheroid.Nonburst.ISI
[6] = read-out: ac50 Mean.Spheroid.Burst.Duration
[7] = read-out: ac50 Mean.Spheroid.Burst.ISI
[8] = read-out: ac50 Mean.Spheroid.Burst.Peak.Firing.Rate
[9] = read-out: ac50 Mean.Spheroid.IBI
[10] = read-out: ac50 Mean.Spheroid.Spikes.per.Burst
[11] = read-out: ac50 Mean.Spheroid.Spikes.per.Burst.per.Electrode
[12] = read-out: ac50 Spheroid.Spike.Amplitude.90th.Percentile
For hitc CCTE Shafer MEA dev active electrodes number in this document: key: 1 (active); 0 (inactive).
For hitc CCTE Shafer MEA dev burst duration mean in this document: key: 1 (active); 0 (inactive).
For hitc CCTE Shafer MEA dev burst rate in this document: key: 1 (active); 0 (inactive).
For hitc CCTE Shafer MEA dev bursting electrodes number in this document: key: 1 (active); 0 (inactive).
For hitc CCTE Shafer MEA dev correlation coefficient mean in this document: key: 1 (active); 0 (inactive).
For hitc CCTE Shafer MEA dev firing rate mean in this document: key: 1 (active); 0 (inactive).
For hitc CCTE Shafer MEA dev inter network spike interval mean in this document: key: 1 (active); 0 (inactive).
For hitc CCTE Shafer MEA dev interburst interval mean in this document: key: 1 (active); 0 (inactive).
For hitc CCTE Shafer MEA dev mutual information norm in this document: key: 1 (active); 0 (inactive).
For hitc CCTE Shafer MEA dev network spike duration std in this document: key: 1 (active); 0 (inactive).
For hitc CCTE Shafer MEA dev network spike number in this document: key: 1 (active); 0 (inactive).
For hitc CCTE Shafer MEA dev network spike peak in this document: key: 1 (active); 0 (inactive).
For hitc CCTE Shafer MEA dev per burst interspike interval in this document: key: 1 (active); 0 (inactive).
For hitc CCTE Shafer MEA dev per burst spike percent in this document: key: 1 (active); 0 (inactive).
For hitc CCTE Shafer MEA dev per network spike spike number mean in this document: key: 1 (active); 0 (inactive).
For hitc CCTE Shafer MEA dev per network spike spike percent in this document: key: 1 (active); 0 (inactive).
For hitc CCTE Shafer MEA dev spike duration mean in this document: key: 1 (active); 0 (inactive).

CC1(C)S[C@@H]2[C@H](NC(=O)[C@H](N)c3ccc(O)cc3)C(=O)N2[C@H]1C(=O)O [Amoxicillin]
BMD Spheroid.Burst.Frequency [1]: 448 µM | Bioactivity across the 10 MEA endpoints of the BrainSphere MEA assay (in words) [1]: inactive across all metrics; also recorded: inactivity across all metrics in both models | Hits [1]: 0 | Percent active [1]: 0% | hitc Mean.Spheroid.Burst.Duration [1]: 0 | hitc Mean.Spheroid.Burst.ISI [1]: 0 | hitc Mean.Spheroid.Burst.Peak.Firing.Rate [1]: 0 | hitc Mean.Spheroid.Firing.Rate [1]: 0 | hitc Mean.Spheroid.IBI [1]: 0 | hitc Mean.Spheroid.Nonburst.ISI [1]: 0 | hitc Mean.Spheroid.Spikes.per.Burst [1]: 0 | hitc Mean.Spheroid.Spikes.per.Burst.per.Electrode [1]: 0 | hitc Spheroid.Burst.Frequency [1]: 0 | hitc Spheroid.Spike.Amplitude.90th.Percentile [1]: 0 | EC (benchmark response 1.349 SD) [1, 4]: 1440 µM | EC (benchmark response 1.349 SD) [1, 5]: 620 µM | AC50 [1, 6]: 220 nM | AC50 [1, 7]: 45000 nM | AC50 [1, 8]: 29 nM | AC50 [1, 9]: 63 nM | AC50 [1, 10]: 10 nM | AC50 [1, 11]: 36 nM | AC50 [1, 12]: 130 nM | hitc CCTE_Shafer_MEA_dev_LDH (2D rat cortical cultures [2]): 0 | hitc CCTE_Shafer_MEA_dev_active_electrodes_number (2D rat cortical cultures [3]): 0 | hitc CCTE_Shafer_MEA_dev_burst_duration_mean (2D rat cortical cultures [3]): 0 | hitc CCTE_Shafer_MEA_dev_burst_rate (2D rat cortical cultures [3]): 0 | hitc CCTE_Shafer_MEA_dev_bursting_electrodes_number (2D rat cortical cultures [3]): 0 | hitc CCTE_Shafer_MEA_dev_correlation_coefficient_mean (2D rat cortical cultures [3]): 0 | hitc CCTE_Shafer_MEA_dev_firing_rate_mean (2D rat cortical cultures [3]): 0 | hitc CCTE_Shafer_MEA_dev_inter_network_spike_interval_mean (2D rat cortical cultures [3]): 0 | hitc CCTE_Shafer_MEA_dev_interburst_interval_mean (2D rat cortical cultures [3]): 0 | hitc CCTE_Shafer_MEA_dev_mutual_information_norm (2D rat cortical cultures [3]): 0 | hitc CCTE_Shafer_MEA_dev_network_spike_duration_std (2D rat cortical cultures [3]): 0 | hitc CCTE_Shafer_MEA_dev_network_spike_number (2D rat cortical cultures [3]): 0 | hitc CCTE_Shafer_MEA_dev_network_spike_peak (2D rat cortical cultures [3]): 0 | hitc CCTE_Shafer_MEA_dev_per_burst_interspike_interval (2D rat cortical cultures [3]): 0 | hitc CCTE_Shafer_MEA_dev_per_burst_spike_percent (2D rat cortical cultures [3]): 0 | hitc CCTE_Shafer_MEA_dev_per_network_spike_spike_number_mean (2D rat cortical cultures [3]): 0 | hitc CCTE_Shafer_MEA_dev_per_network_spike_spike_percent (2D rat cortical cultures [3]): 0 | hitc CCTE_Shafer_MEA_dev_spike_duration_mean (2D rat cortical cultures [3]): 0 | Bioactivity in the rNFA (in words) (2D rat cortical cultures [3]): negative in the rNFA; also recorded: inactive in the rNFA; also recorded: inactivity across all metrics in both models

CC(=O)Nc1ccc(O)cc1 [Acetaminophen]
Bioactivity across the 10 MEA endpoints of the BrainSphere MEA assay (in words) [1]: inactive in both assays; also recorded: inactive across all endpoints; also recorded: inactivity across all metrics in both models | Bioactivity trend over time for MFR, mean spike amplitude and burst frequency (qualitative) [1]: no clear chemical-dependent effects were observed | Hits [1]: 0 | Percent active [1]: 0% | hitc Mean.Spheroid.Burst.Duration [1]: 0 | hitc Mean.Spheroid.Burst.ISI [1]: 0 | hitc Mean.Spheroid.Burst.Peak.Firing.Rate [1]: 0 | hitc Mean.Spheroid.Firing.Rate [1]: 0 | hitc Mean.Spheroid.IBI [1]: 0 | hitc Mean.Spheroid.Nonburst.ISI [1]: 0 | hitc Mean.Spheroid.Spikes.per.Burst [1]: 0 | hitc Mean.Spheroid.Spikes.per.Burst.per.Electrode [1]: 0 | hitc Spheroid.Burst.Frequency [1]: 0 | hitc Spheroid.Spike.Amplitude.90th.Percentile [1]: 0 | EC (benchmark response 1.349 SD) [1, 4]: 415 µM | EC (benchmark response 1.349 SD) [1, 5]: 163 µM | AC50 [1, 6]: 4700 nM | AC50 [1, 7]: 45000 nM | AC50 [1, 8]: 370 nM | AC50 [1, 9]: 1800 nM | AC50 [1, 10]: 6000 nM | AC50 [1, 11]: 390 nM | AC50 ([1]; read-out: ac50 Spheroid.Burst.Frequency): 610 nM | AC50 [1, 12]: 240 nM | hitc CCTE_Shafer_MEA_dev_LDH (2D rat cortical cultures [2]): 0 | hitc CCTE_Shafer_MEA_dev_active_electrodes_number (2D rat cortical cultures [3]): 0 | hitc CCTE_Shafer_MEA_dev_burst_duration_mean (2D rat cortical cultures [3]): 0 | hitc CCTE_Shafer_MEA_dev_burst_rate (2D rat cortical cultures [3]): 0 | hitc CCTE_Shafer_MEA_dev_bursting_electrodes_number (2D rat cortical cultures [3]): 0 | hitc CCTE_Shafer_MEA_dev_correlation_coefficient_mean (2D rat cortical cultures [3]): 0 | hitc CCTE_Shafer_MEA_dev_firing_rate_mean (2D rat cortical cultures [3]): 0 | hitc CCTE_Shafer_MEA_dev_inter_network_spike_interval_mean (2D rat cortical cultures [3]): 0 | hitc CCTE_Shafer_MEA_dev_interburst_interval_mean (2D rat cortical cultures [3]): 0 | hitc CCTE_Shafer_MEA_dev_mutual_information_norm (2D rat cortical cultures [3]): 0 | hitc CCTE_Shafer_MEA_dev_network_spike_duration_std (2D rat cortical cultures [3]): 0 | hitc CCTE_Shafer_MEA_dev_network_spike_number (2D rat cortical cultures [3]): 0 | hitc CCTE_Shafer_MEA_dev_network_spike_peak (2D rat cortical cultures [3]): 0 | hitc CCTE_Shafer_MEA_dev_per_burst_interspike_interval (2D rat cortical cultures [3]): 0 | hitc CCTE_Shafer_MEA_dev_per_burst_spike_percent (2D rat cortical cultures [3]): 0 | hitc CCTE_Shafer_MEA_dev_per_network_spike_spike_number_mean (2D rat cortical cultures [3]): 0 | hitc CCTE_Shafer_MEA_dev_per_network_spike_spike_percent (2D rat cortical cultures [3]): 0 | hitc CCTE_Shafer_MEA_dev_spike_duration_mean (2D rat cortical cultures [3]): 0 | Bioactivity in the rNFA (in words) (2D rat cortical cultures [3]): inactivity across all metrics in both models | Bioactivity in the rNFA (in words) (2D rat cortical cultures [3]; listed as acetaminophen): inactive in both assays; also recorded: did not
